Some test systems named below: SK-MEL-2 melanoma; SK-OV-3 ovarian; OVCAR-4 ovarian; NCI-H23 lung; DU-145 prostate; UO-31 renal; SK-MEL-5 melanoma; MOLT-4 leukemia; MDA-MB-435; A498 renal.
Common to all, as to experiment: growth of human tumour cells (NCI), 48 h

Results on 6 compounds are retold here after PubChem BioAssay (NCI).

Where “and” joins values, the source holds several entries; their conditions need not be identical. Equal entries are not always repeated.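 Each compound was tested at five concentrations against cells in 96-well plates for 48 hours. The concentration for 50% growth inhibition is given as GI50. TGI marks complete inhibition of growth.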

Regarding `CCCCCCCCCCCCOC1C(C(COC2OC(C3COC(C)(C)O3)C3OC(C)(C)OC23)NC(=O)NS(=O)(=O)c2ccccc2)OC2OC(C)(C)OC21` (stereo not given), the GI50 with SK-MEL-2 melanoma was 3.29 µM; in the test with SK-OV-3 ovarian, 13.8 µM; with OVCAR-4 ovarian, 8.23 µM; in the test with NCI-H23 lung, 4.34 µM; with DU-145 prostate, 2.74 µM; in the test on UO-31 renal it was 5.16 µM. Further, the GI50 was 2.51 µM in the test on SK-MEL-5 melanoma, 0.0149 µM in the test with MOLT-4 leukemia, 4.6 µM with MDA-MB-435 and 3.87 µM in the test on A498 renal. In addition, the TGI in the test with SK-MEL-2 melanoma is 9.57 µM; in the test on SK-OV-3 ovarian it was 28.1 µM; in the test on OVCAR-4 ovarian it was 66.5 µM; with NCI-H23 lung, 19.3 µM; with DU-145 prostate, 8.39 µM; in the test with UO-31 renal, 19.7 µM. Besides, the TGI with SK-MEL-5 melanoma was 6.34 µM; in the test with MOLT-4 leukemia, 0.12 µM; in the test with MDA-MB-435 it was 21.5 µM; in the test on A498 renal, 11.9 µM.
In the case of `CC(C)COCC(CN(Cc1ccccc1)c1ccccc1)N1CCCC1` (stereo not given), the GI50 with SK-MEL-2 melanoma is 2.73 µM; with SK-OV-3 ovarian, 3.17 µM; in the test with OVCAR-4 ovarian, 2.04 µM; in the test with NCI-H23 lung, 2.82 µM; in the test on DU-145 prostate, 3.76 µM; in the test on UO-31 renal it was 1.96 µM. Moreover, the GI50 was 1.65 µM with SK-MEL-5 melanoma, 3.61 µM in the test with MOLT-4 leukemia, 3.46 µM in the test on MDA-MB-435 and 1.03 µM in the test with A498 renal. For the same compound, the TGI in the test with SK-MEL-2 melanoma came out at 8 µM; with SK-OV-3 ovarian, 13.6 µM; in the test on OVCAR-4 ovarian, 11 µM; with NCI-H23 lung it was 14.6 µM; in the test with DU-145 prostate it was 13.6 µM; in the test on UO-31 renal, 13.1 µM. In addition, the TGI was 3.01 µM with SK-MEL-5 melanoma, 13.1 µM in the test with MOLT-4 leukemia, 13.8 µM in the test on MDA-MB-435 and 10.4 µM with A498 renal.
Consider `Nc1c([N+](=O)[O-])cc2c3c(cccc13)CC2`, for which the TGI in the test on SK-MEL-2 melanoma, in the test with SK-OV-3 ovarian, in the test on OVCAR-4 ovarian, in the test on NCI-H23 lung, in the test with DU-145 prostate and in the test with UO-31 renal was greater than 100 µM throughout. Moreover, the TGI in the test with SK-MEL-5 melanoma, in the test with MOLT-4 leukemia, in the test with MDA-MB-435 and in the test with A498 renal was greater than 100 µM each time.
As for `COc1cc(NC(=O)CSc2nc3ccc(C)cc3c(=O)n2Cc2ccccc2)cc(OC)c1OC`, the GI50 with SK-MEL-2 melanoma was 3.38 µM; with SK-OV-3 ovarian it was 3.06 µM; with OVCAR-4 ovarian, 3.41 µM; in the test with NCI-H23 lung it was 8.3 µM; in the test with DU-145 prostate, 84.7 µM; in the test on UO-31 renal, 5.97 µM. For the same compound, the GI50 in the test with SK-MEL-5 melanoma was 3.67 µM; with MOLT-4 leukemia, greater than 100 µM; with MDA-MB-435, 9.55 µM; in the test with A498 renal, 1.01 µM. For the same compound, the TGI with SK-MEL-2 melanoma is 10.6 µM; in the test with SK-OV-3 ovarian, 8.58 µM; with OVCAR-4 ovarian, 33.3 µM; with NCI-H23 lung, 42.3 µM; in the test on DU-145 prostate it was greater than 100 µM; in the test with UO-31 renal, greater than 100 µM. Moreover, the TGI is 23.7 µM with SK-MEL-5 melanoma, greater than 100 µM in the test on MOLT-4 leukemia, greater than 100 µM in the test with MDA-MB-435 and 5.55 µM in the test on A498 renal.
For `O=P(CCCCP(=O)(c1ccccc1)c1ccccc1)(c1ccccc1)c1ccccc1.[Cl][Sn]([Cl])([c]1ccccc1)[c]1ccccc1`, the GI50 was 1.74 µM with SK-MEL-2 melanoma; 6.25 µM in the test with SK-OV-3 ovarian; 1.54 µM with OVCAR-4 ovarian; 1.48 µM in the test on NCI-H23 lung; 2 µM in the test with DU-145 prostate; 1.68 µM in the test on UO-31 renal. Further, the GI50 in the test with SK-MEL-5 melanoma is 1.9 µM; with MOLT-4 leukemia it was 2.06 µM; in the test on MDA-MB-435, 1.77 µM; in the test with A498 renal it was 2 µM. Further, the TGI with SK-MEL-2 melanoma was 3.39 µM; in the test with SK-OV-3 ovarian, 19 µM; in the test with OVCAR-4 ovarian, 3 µM; with NCI-H23 lung, 3.48 µM; with DU-145 prostate it was 4.52 µM; in the test on UO-31 renal, 3.19 µM. Besides, the TGI is 4.07 µM in the test on SK-MEL-5 melanoma, greater than 100 µM with MOLT-4 leukemia, 3.91 µM in the test on MDA-MB-435 and 3.76 µM in the test on A498 renal.
`CC1(O)CC(c2nc(-c3ccc4ccc(-c5ccccc5)nc4c3)c3c(N)nccn23)C1` (stereo not given): the GI50 in the test with SK-MEL-2 melanoma is 10.1 µM and 6.63 µM; with SK-OV-3 ovarian it was 10.4 µM and 9.84 µM; in the test on OVCAR-4 ovarian, 7.5 µM and > 10 µM; in the test with NCI-H23 lung it was 8.83 µM and 5.03 µM; with DU-145 prostate, 7.4 µM and 8.12 µM; with UO-31 renal, 3.6 µM and 1.65 µM. Moreover, the GI50 was 3.38 µM in the test with SK-MEL-5 melanoma; 7.16 µM and 3.72 µM in the test with MOLT-4 leukemia; 4.53 µM and 3.69 µM in the test on MDA-MB-435; 3.32 µM and 4.55 µM with A498 renal. For the same compound, the TGI is 60.6 µM and > 10 µM in the test on SK-MEL-2 melanoma; greater than 100 µM with SK-OV-3 ovarian; greater than 95 µM in the test on OVCAR-4 ovarian; greater than 80.8 µM with NCI-H23 lung; greater than 86.8 µM in the test with DU-145 prostate; greater than 76.3 µM in the test on UO-31 renal. For the same compound, the TGI in the test on SK-MEL-5 melanoma was 14.9 µM; in the test on MOLT-4 leukemia it was greater than 80.1 µM; in the test on MDA-MB-435 it was 27.3 µM and > 10 µM; in the test on A498 renal it was 12.8 µM and > 10 µM.
